Assay results as given in ChEMBL document CHEMBL6127040, “Discovery and optimization of isoliquiritigenin as a death-associated protein kinase 1 inhibitor” (Eur J Med Chem, 2024).

Target: Death-associated protein kinase 1 (Homo sapiens, UniProt P53355)
Test: Binding affinity to DAPK1 (unknown origin) assessed as dissociation constant by ITC analysis

Sequence of Death-associated protein kinase 1 (P53355 whole entry): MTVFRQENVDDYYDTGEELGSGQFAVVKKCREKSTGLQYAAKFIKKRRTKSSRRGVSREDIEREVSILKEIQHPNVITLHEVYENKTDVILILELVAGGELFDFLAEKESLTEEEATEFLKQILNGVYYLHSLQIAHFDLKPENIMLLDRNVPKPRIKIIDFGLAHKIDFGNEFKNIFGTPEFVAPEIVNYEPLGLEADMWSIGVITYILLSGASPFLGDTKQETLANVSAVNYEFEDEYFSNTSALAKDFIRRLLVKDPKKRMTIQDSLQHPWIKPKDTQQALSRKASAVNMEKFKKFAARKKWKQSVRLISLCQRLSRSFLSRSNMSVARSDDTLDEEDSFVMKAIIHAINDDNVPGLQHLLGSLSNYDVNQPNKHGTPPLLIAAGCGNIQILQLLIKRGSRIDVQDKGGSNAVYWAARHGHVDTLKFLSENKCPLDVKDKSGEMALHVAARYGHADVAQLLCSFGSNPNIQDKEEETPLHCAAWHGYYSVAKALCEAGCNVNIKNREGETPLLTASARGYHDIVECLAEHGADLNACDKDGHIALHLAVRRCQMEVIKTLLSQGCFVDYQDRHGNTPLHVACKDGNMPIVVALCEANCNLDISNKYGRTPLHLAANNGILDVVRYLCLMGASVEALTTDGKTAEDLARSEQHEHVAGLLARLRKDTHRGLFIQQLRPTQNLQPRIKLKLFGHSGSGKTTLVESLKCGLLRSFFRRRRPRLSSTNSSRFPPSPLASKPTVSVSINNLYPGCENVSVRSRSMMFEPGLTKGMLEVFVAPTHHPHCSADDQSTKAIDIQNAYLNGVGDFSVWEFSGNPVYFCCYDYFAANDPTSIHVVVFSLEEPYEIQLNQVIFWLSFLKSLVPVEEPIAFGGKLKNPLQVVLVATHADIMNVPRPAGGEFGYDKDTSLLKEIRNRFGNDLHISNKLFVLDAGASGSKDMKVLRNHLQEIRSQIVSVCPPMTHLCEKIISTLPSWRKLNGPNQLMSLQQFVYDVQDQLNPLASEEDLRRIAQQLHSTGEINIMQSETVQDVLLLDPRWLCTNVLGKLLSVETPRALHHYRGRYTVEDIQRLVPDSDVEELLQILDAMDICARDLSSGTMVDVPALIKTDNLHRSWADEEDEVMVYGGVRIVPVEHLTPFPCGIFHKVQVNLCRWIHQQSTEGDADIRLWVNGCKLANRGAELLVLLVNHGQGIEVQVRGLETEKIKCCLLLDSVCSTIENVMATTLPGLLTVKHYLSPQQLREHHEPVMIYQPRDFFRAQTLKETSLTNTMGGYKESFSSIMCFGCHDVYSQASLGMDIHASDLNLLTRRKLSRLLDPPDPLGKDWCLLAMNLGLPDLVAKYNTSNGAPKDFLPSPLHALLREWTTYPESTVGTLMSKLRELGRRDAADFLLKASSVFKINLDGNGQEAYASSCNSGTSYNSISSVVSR

SMILES: O=C(/C=C/c1ccc(O)cc1)c1ccc(O)cc1O [ISOLIQUIRITIGENIN]
- Kd: 2480 nM
